Data: the CombiSolv-Exp solvation set (Vermeire and Green 2021)

Assay: solvent given as SMILES

c1ccc2c(c1)Sc1ccccc1S2
Conditions | solvation free energy, 298 K [kcal/mol]
in C1COCCO1 | -12.8
in CC(C)CC(C)(C)C | -11.1
in CC(C)CCO | -11.3
in CC(C)CO | -11.1
in CC(C)O | -11
in CC(C)OC(C)C | -11.7
in CCC(C)O | -11.2
in CCCCC(CC)CO | -11.4
in CCCCCC | -11.4
in CCCCCCC | -11.3
in CCCCCCCC | -11.4
in CCCCCCCCCC | -11.3
in CCCCCCCCCCO | -11.6
in CCCCCCCCO | -11.6
in CCCCCCCO | -11.6
in CCCCCCO | -11.5
in CCCCCO | -11.5
in CCCCO | -11.4
in CCCO | -11.3
in CCOCC | -12.1
in CO | -10.9
in COC(C)(C)C | -12.1

O=C(CC(=O)C(F)(F)F)C(F)(F)F
Conditions | solvation free energy, 298 K [kcal/mol]
in O | -4.56

c1ccc2ccccc2c1
Conditions | solvation free energy, 298 K [kcal/mol]
in C1CCOC1 | -8.21
in C1COCCO1 | -7.98
in CC(=O)OCC(C)C | -7.7
in CC(C)(C)O | -6.85
in CC(C)=O | -7.84
in CC(C)CC(C)(C)C | -6.92
in CC(C)CO | -7.09
in CC(C)O | -6.9
in CCC(C)O | -6.88
in CCCCCC | -7.24
in CCCCCCC | -7.22
in CCCCCCCCC=CCCCCCCCC(=O)OCC(COC(=O)CCCCCCCC=CCCCCCCCC)OC(=O)CCCCCCCC=CCCCCCCCC | -7.56
in CCCCCCCCO | -7.08
in CCCCCCO | -7.12
in CCCCCO | -6.89
in CCCCO | -7.09
in CCCO | -7.08
in CCO | -7.08
in CCOC(C)=O | -7.78
in CN1CCCC1=O | -8.08
in CN(C)C=O | -7.95
in CO | -7.01
in Cc1ccc(C)cc1 | -7.88
in Cc1cccc(C)c1 | -7.86
in Cc1ccccc1C | -7.85
in ClC(Cl)(Cl)Cl | -7.63
in ClCCCl | -8.02
in ClCCl | -8.1
in Clc1ccccc1 | -7.87
in O | -2.37
in O=C1CCCCC1 | -7.72

CC(=O)OC(C)C
Conditions | solvation free energy, 298 K [kcal/mol]
in CC(C)CCCC(C)CCCC(C)CCCCC(C)CCCC(C)CCCC(C)C | -3.52
in CCCCCCCCCC | -3.79
in CCCCCCCCCCCCCCCC | -3.55
in CCCCCCCCO | -3.99
in O | -2.59
in [2H]O[2H] | -2.62

CN1C(=O)CN=C(c2ccccc2)c2cc(Cl)ccc21
Conditions | solvation free energy, 298 K [kcal/mol]
in O | -12.6

c1c[nH]cn1
Conditions | solvation free energy, 298 K [kcal/mol]
in O | -9.63

O=c1[nH]c2ccccc2n1C1CCN(CCCC(c2ccc(F)cc2)c2ccc(F)cc2)CC1
Conditions | solvation free energy, 298 K [kcal/mol]
in C1COCCO1 | -27.7
in CC(C)O | -26.4
in CCCCCCCCO | -26.7
in CCCCCCCO | -26.8
in CCCCCCO | -26.7
in CCCCCO | -26.8
in CCCCO | -26.7
in CCCO | -26.6
in CCO | -26.6
in CCOC(C)=O | -26.6
in CO | -26.6

Clc1ccc(Cl)c(Cl)c1Cl
Conditions | solvation free energy, 298 K [kcal/mol]
in CCCCCCCCC=CCCCCCCCC(=O)OCC(COC(=O)CCCCCCCC=CCCCCCCCC)OC(=O)CCCCCCCC=CCCCCCCCC | -7.82
in CCCCCCCCO | -7.69
in O | -1.34

O=C(O)CCCCc1ccccc1
Conditions | solvation free energy, 298 K [kcal/mol]
in O | -8.68

CC(=O)C1COCCOCCOCCOCCOc2ccccc2O1 (stereo not drawn)
Conditions | solvation free energy, 298 K [kcal/mol]
in Cc1cccc(C)c1 | -19.2
in O | -17.8

CCCCCCCCCCCCCCCCCCCCCCC
Conditions | solvation free energy, 298 K [kcal/mol]
in CC(=O)N(C)C | -15.7
in CC(C)(C)O | -14.2
in CC(C)=O | -13.4
in CCC(C)=O | -14.3
in CCC(C)O | -14.1
in CCCCOC(C)=O | -14.9
in CCOC(C)=O | -14.4
in CN(C)C=O | -15.8
in COC(C)=O | -13.7
in O | 5.07

CC(C)(C)c1ccc(O)cc1
Conditions | solvation free energy, 298 K [kcal/mol]
in CCCCCC | -7.63
in O | -5.91

CCCCCCCCCCCCCCCCCCC
Conditions | solvation free energy, 298 K [kcal/mol]
in CC(=O)N(C)C | -12.9
in CCCCOC(C)=O | -12.7
in CCO | -10.8
in O | 4.38

CN(C)C=O
Conditions | solvation free energy, 298 K [kcal/mol]
in C1CCOC1 | -5.99
in C1COCCO1 | -6.17
in CC(C)=O | -6.43
in CCC(C)=O | -6.41
in CCCCCCCCCCCCCCCC | -3.88
in CCCCCCCCO | -5.95
in CCOC(C)=O | -6.1
in ClC(Cl)(Cl)Cl | -4.73
in O | -7.77
in [2H]O[2H] | -7.47
in c1ccccc1 | -6.19

CCCCCOCCCCC
Conditions | solvation free energy, 298 K [kcal/mol]
in CCCCCCCCCCCCCCCC | -6.4
in CCCCCCCCO | -6.46
